Consider five molecules from patent US11351137B2, “Composition and method for dual targeting in treatment of neuroendocrine tumors” (NANOPHARMACEUTICALS LLC, priority 2018, dated 2022).

Entries after “also recorded” stand apart in the source; their conditions may differ.

In series [1] the test system is neuroblastoma SKNF2 cells. Briefly: Composition 300 dose response on subcutaneously implanted SKNF2 neuroblastoma tumor in female nude mice. Format: in vivo. Conditions: for tumor shrinkage (tumor weight) / tumor cell viability / tumor cell necrosis rate: 15 days; for tumor cell viability: control 70-75%. The procedure: The efficacy of Composition 300 (BG-P-TAT) was tested using neuroblastoma SKNF2 cells implanted into nude female mice.
Fifteen (15) female nude mice were implanted with twice with 10^6 cells/implant. The SKNF2 cell line was used with subcutaneous xenografts.
Eight (8) days following implantation, the mice were divided into four groups receiving the following treatment for 15 days:
Following fifteen (15) days of treatment, tumors were collected in order to evaluate histopathology, and the following results were collected: […]

For series [2], the system named is SKNF1 neuroblastoma tumors. Briefly: Cy5 fluorescence imaging of subcutaneously implanted SKNF1 tumor in athymic female mice. Format: in vivo. Conditions: Cy5 labeled; 1-24 hours post-administration; compared with triazole tetrac derivative alone or benzyl guanidine derivative alone. The procedure:
Athymic female mice were implanted twice each with 10^6 cells/implant. The SKNF1 cell line was used with subcutaneous xenografts.
Group 1 consisted of three mice and were treated with PEG-TAT-dye (Cy5). Group 2 consisted of three mice and were treated with PEG-BG-dye (Cy5). Group 3 consisted of three mice and were treated with TAT-PEG-BG-dye (Cy5) wherein the TAT and BG were covalently linked with a PEG linker as compound 300. The treatment groups are shown below:
Fluorescence imaging (Cy5) was conducted 1 hour, 2 hours, 4 hours, 6 hours, and 24 hours post-administration. Imaging results are shown in FIGS. 13a and 13b, in which the tumor location is circled in yellow and the Cy5 dye appears as red.

Series [3] relates to SKNF2 cell lines. The experiment in a line: Comparative examples: BG, BG derivatives, TAT derivative and co-administration versus Composition 300 in mice implanted with SKNF2 cell lines. In kind it is in vivo. Conditions: for Percentage of Tumor Growth Suppression / Reduction of tumor viability: Dosage 3 mg/kg. The procedure: FIGS. 12a and 12b shown the effect of the control and treatment with BG, BG derivatives, thyrointegrin antagonists such as TAT derivatives, and combinations (co-administration) thereof, versus Composition 300 (BG-P-TAT) on tumor cell necrosis of mice implanted with SKNF2 cell lines.
Further, even a combination treatment of two triazole tetrac derivatives in combination delivered subcutaneously daily for three (3) weeks at 3 mg/kg only achieves a reduction of 40-50% for tumor growth and tumor viability. Similar results are obtained with treatments using benzyl guanidine and benzyl guanidine derivatives.
For example, the graph of FIG. 12b includes the effect of a triazole tetrac derivative (referred to as TAT) on tumor weight when compared with a control group (phosphate-buffered saline “PBS”). The specific derivative tested was beta cyclodextrin triazole tetrac.
Again, beta cyclodextrin triazole tetrac was the tetrac derivative used.
Composition 300 achieves approximately 80% reduction in tumor. Further, the viability of residual tumor was reduced by 80%.

Series [4] addresses purified integrin αvβ3 receptor (Homo sapiens, UniProt P05106+P06756). The experiment in a line: Binding affinity towards purified integrin αvβ3 receptor.
The test system of series [5] is neuroblastoma SKNF1 cells. Briefly: Compositions 7a, 7b and 15 on subcutaneously implanted SKNF1 neuroblastoma tumor in female nude mice. Format: in vivo. The procedure: The efficacy of Compositions 7a (dI-BG-P-TAT), 7b (dM-BG-P-TAT), and 15 (BG-P-PAT) were tested using neuroblastoma SKNF1 cells implanted into nude female mice similar to the examples discussed above for Composition 300 (BG-P-TAT).
Further, to compare the histopathological changes in tumors of untreated and treated groups, tumors were harvested, fixed, and stained with hematoxylin and eosin (H&E). Necrosis at low magnification of tumors from animals treated with compounds 7a, 7b, and 15 versus control is seen clearly as shown in Figure. […] On the other hand, tumors from the untreated group had mostly viable tumor cells. […]

The subject of series [6] is SKNF2 cell lines. Briefly: Comparative examples: BG, BG derivatives, TAT derivative and co-administration versus Composition 300 in mice implanted with SKNF2 cell lines. As to conditions: 3 mg/kg subcutaneously daily for 15 days (FIGS. 12a, 12b). Format: in vivo.

Chain of purified integrin αvβ3 receptor (P06756 31-889 limits assumed): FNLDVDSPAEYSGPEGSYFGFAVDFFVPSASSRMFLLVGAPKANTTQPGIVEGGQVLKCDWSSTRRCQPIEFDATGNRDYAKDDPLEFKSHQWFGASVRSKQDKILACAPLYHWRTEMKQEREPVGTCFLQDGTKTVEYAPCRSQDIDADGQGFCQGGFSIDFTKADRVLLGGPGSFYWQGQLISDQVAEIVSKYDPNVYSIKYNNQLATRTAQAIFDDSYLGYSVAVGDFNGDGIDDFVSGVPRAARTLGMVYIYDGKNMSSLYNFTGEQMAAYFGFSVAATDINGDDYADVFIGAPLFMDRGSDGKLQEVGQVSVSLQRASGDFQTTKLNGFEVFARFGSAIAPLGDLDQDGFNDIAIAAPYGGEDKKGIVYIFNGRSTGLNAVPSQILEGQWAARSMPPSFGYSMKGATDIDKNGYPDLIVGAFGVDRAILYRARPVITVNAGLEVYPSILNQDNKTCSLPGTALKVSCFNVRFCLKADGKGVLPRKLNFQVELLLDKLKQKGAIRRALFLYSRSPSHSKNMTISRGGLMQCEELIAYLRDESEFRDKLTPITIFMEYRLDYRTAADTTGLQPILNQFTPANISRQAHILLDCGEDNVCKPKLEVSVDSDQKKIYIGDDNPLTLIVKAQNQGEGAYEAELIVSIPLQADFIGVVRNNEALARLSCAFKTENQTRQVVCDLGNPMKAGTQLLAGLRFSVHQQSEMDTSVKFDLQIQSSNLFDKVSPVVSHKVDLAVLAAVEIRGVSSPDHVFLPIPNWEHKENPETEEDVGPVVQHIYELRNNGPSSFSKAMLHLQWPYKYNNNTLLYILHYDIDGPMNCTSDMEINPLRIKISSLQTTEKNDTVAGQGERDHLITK
Chain of purified integrin αvβ3 receptor (P06756 891-1048 partner limits assumed): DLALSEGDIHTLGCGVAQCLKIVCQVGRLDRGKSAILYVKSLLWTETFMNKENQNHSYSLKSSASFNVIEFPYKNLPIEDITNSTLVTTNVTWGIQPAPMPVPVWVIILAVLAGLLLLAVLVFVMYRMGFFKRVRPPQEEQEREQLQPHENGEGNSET
Chain of purified integrin αvβ3 receptor (P05106 27-788): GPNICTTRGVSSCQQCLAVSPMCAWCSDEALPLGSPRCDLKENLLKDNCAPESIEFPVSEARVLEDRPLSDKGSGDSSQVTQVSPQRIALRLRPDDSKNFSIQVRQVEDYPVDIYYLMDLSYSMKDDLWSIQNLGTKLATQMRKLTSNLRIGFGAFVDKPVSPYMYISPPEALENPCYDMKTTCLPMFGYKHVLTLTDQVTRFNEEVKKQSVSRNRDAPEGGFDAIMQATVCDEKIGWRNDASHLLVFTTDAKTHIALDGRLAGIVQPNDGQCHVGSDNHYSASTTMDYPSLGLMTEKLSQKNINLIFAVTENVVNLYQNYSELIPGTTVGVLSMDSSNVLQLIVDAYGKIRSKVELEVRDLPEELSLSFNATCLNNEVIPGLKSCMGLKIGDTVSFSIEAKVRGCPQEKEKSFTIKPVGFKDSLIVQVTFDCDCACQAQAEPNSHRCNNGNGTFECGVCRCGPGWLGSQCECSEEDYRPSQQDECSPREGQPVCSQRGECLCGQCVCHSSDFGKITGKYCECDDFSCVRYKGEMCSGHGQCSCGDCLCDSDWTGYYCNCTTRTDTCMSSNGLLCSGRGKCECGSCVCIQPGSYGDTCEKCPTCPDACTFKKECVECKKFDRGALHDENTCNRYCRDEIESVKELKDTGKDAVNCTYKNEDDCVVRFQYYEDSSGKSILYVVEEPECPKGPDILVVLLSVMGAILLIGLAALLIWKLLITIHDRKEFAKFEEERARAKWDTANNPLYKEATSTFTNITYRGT

On to `N=C(N)NCc1ccc(OCCOCCOCCOCCOCCOCCOCCn2cc(COc3c(I)cc(Oc4c(I)cc(CC(=O)O)cc4I)cc3I)nn2)cc1` [Composition 300, 2-(4-(4-((1-(20-(4-(guanidinomethyl)phenoxy)-3,6,9,12,15,18-hexaoxaicosyl)-1H-1,2,3-triazol-4-yl)methoxy)-3,5-diiodophenoxy)-3,5-diiodophenyl)acetic acid], for which the “tumor shrinkage (tumor weight)” value in series [1] (1 mg/kg daily) is on record as 60%; in series [1] (3 mg/kg daily), 80%; in series [1] (10 mg/kg daily), 100%. Also, the tumor cell viability was 50% in series [1] (1 mg/kg daily), 20 in series [1] (3 mg/kg daily) and 0.00% in series [1] (10 mg/kg daily). Further, the “tumor cell necrosis rate” value is listed as “approximately 50%” in series [1] (1 mg/kg), “approximately 80%” in series [1] (3 mg/kg) and around 100% in series [1] (10 mg/kg). For the same molecule, in series [1] (10 mg/kg group, start approximately 825 mm^3, control rose to 1050 mm^3), the “tumor volume after 15 days of treatment” value is listed as around 100 mm^3. For the same molecule, the “effect on animal body weight” value in series [1] (1, 3 and 10 mg/kg subcutaneously daily for 15 days, versus control animals) is “no effect; also recorded: no significant changes”. Also, the cancer cell necrosis in series [1] (at the 3 and 10 mg/kg doses (FIG. 11 legend)) is recorded as 80-100%. Moreover, the “abnormal animal head movements (circling) seen in control mice” value in series [1] (treated mice, 1-10 mg/kg) is “disappearance”. In addition, the tumor vasculature entry in series [1] (treatment groups 1-10 mg/kg versus control) is “clearly diminished”. Moreover, in series [2], the “retention time within the tumor (Cy5 fluorescence)” value was “marked improvement”. Further, the “uptake into the SKNF1 neuroblastoma tumors (Cy5 fluorescence)” value in series [2] was “marked improvement; also recorded: highest intensity accumulation”. The “reduction of viability of residual tumor” value in the series with SKNF2 cell lines [3] (3 mg/kg) stood at 80%. The “tumor weight shrinkage / reduction versus control (PBS)” value in the series on SKNF2 cell lines [3] (3 mg/kg subcutaneously daily for 15 days (FIGS. 12a, 12b), listed as BG-P-TAT) was determined as 80%. Further, the “Percentage of Tumor Growth Suppression” value with SKNF2 cell lines [3] is 80-90%. Besides, in the series on SKNF2 cell lines [3], the “Reduction of tumor viability” value is given as 80-90%. In series [4], the IC50 amounted to 10.3 nM.

Turning to `N=C(N)NCc1ccc(OCCOCCOCCOCCOCCOCCOCCOCCN2CCN(CCCOc3c(I)cc(Oc4c(I)cc(CC(=O)O)cc4I)cc3I)CC2)cc1` [Composition 15], the IC50 in series [4] came out at 0.3 nM. Also, in series [4] (αvβ3 binding), the “fold increase in binding affinity relative to BG-P-TAT” value was around 30 fold. Further, in series [5] (3 mg/kg subcutaneously, 20 days, control rose from 175 mm^3 to 1000 mm^3), the “tumor volume over twenty days” value is recorded as “no substantial increase”. In series [5] (3 mg/kg, 20 days of treatment), the “areas of necrosis, fibrosis and cell debris (H&E staining)” value is “approximately 98%”; the “decrease in tumor weight versus control” value is recorded as 90%.

Turning to `N=C(N)NCc1ccccc1` [BG, benzyl guanidine], in the series on SKNF2 cell lines [3], the “Percentage of Tumor Growth Suppression” value was 40-50% and the “Reduction of tumor viability” value is on record as 40-50%.

Consider beta cyclodextrin triazole tetrac [TAT], for which the “tumor weight shrinkage / reduction versus control (PBS)” value in the series with SKNF2 cell lines [6] is listed as 40-50%. Besides, in the series on SKNF2 cell lines [3], the “Percentage of Tumor Growth Suppression” value is given as 40-50% and the “Reduction of tumor viability” value is on record as 40-50%.

Regarding `N=C(N)NCc1cccc([131I])c1` [MIBG, meta-iodobenzylguanidine], in the series with SKNF2 cell lines [3], the “Percentage of Tumor Growth Suppression” value is reported as 40-50% and the “Reduction of tumor viability” value is listed as 40-50%.
